In general, IC50 refers to the concentration that gives 50% inhibition. A low value points to inhibition by little substance.

The results in this text go back to ChEMBL document CHEMBL1177732, “Triterpene saponins from Clematis chinensis and their potential anti-inflammatory activity” (J Nat Prod, 2010).

Assay [1] deals with Prostaglandin G/H synthase 1 (Homo sapiens, UniProt P23219). Put plainly: Inhibition of COX1 by microplate reader.
For assay [2], the target named is T1, Prostaglandin G/H synthase 2 (Homo sapiens, UniProt P35354).
T1 sequence (P35354 whole entry): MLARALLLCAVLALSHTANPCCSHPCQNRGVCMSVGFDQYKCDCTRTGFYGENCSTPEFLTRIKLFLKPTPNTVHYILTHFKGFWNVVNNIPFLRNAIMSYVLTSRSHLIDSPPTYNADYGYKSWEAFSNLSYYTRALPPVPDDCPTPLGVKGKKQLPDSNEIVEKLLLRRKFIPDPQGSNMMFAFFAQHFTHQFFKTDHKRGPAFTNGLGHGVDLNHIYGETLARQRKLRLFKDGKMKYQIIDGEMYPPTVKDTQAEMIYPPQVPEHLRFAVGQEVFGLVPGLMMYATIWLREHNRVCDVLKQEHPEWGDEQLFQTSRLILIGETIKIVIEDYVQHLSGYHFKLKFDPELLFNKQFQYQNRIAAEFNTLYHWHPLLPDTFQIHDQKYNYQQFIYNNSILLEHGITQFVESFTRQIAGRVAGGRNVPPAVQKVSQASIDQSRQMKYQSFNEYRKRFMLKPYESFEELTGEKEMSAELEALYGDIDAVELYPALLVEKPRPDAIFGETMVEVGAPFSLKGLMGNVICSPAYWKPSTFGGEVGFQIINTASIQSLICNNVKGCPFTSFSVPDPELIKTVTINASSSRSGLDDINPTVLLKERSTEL
In words: Inhibition of COX2 by microplate reader.

Structures are written as SMILES.

Prostaglandin G/H synthase 1, sequence (P23219 whole entry): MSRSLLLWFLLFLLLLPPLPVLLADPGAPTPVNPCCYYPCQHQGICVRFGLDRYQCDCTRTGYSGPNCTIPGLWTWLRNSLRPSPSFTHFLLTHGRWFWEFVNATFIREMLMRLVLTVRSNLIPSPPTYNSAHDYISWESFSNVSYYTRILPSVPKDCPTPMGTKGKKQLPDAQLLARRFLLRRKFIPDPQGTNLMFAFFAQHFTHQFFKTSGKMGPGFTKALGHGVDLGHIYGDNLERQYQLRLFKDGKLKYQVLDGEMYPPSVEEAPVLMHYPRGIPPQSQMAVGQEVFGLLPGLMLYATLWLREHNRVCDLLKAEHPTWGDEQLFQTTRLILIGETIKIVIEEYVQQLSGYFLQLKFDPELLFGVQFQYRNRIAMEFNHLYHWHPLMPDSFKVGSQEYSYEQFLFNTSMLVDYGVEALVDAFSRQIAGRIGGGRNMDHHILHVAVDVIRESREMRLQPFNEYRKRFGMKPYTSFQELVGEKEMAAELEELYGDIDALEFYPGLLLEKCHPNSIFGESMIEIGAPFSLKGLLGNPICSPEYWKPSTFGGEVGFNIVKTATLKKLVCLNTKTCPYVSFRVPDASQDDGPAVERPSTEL

Consider `C[C@@H]1O[C@@H](O[C@H]2[C@H](O)[C@@H](O)[C@H](OC[C@H]3O[C@@H](OC(=O)[C@]45CCC(C)(C)C[C@H]4C4=CC[C@@H]6[C@@]7(C)CC[C@H](O[C@@H]8OC[C@H](O)[C@H](O)[C@H]8O[C@@H]8O[C@@H](C)[C@H](O)[C@@H](O[C@@H]9OC[C@@H](O[C@@H]%10O[C@H](CO)[C@@H](O)[C@H](O)[C@H]%10O)[C@@H](O)[C@H]9O)[C@H]8O)C(C)(C)[C@@H]7CC[C@@]6(C)[C@]4(C)CC5)[C@H](O)[C@@H](O)[C@@H]3O)O[C@@H]2CO)[C@H](O)[C@H](O)[C@H]1O` [CLEMATICHINENOSIDE C], for which the IC50 in assay [1] and in assay [2] was > 50 µM in each case.
